These results are taken from PubChem BioAssay AID624130 (National Center for Advancing Translational Sciences (NCATS), 2012).

In brackets after ≈: the same amount, converted by molar mass.

This series deals with aqueous kinetic solubility, pH 7.4 phosphate buffer, LC-UV/MS. The series is described as follows: qHTS Assay to Find Inhibitors of T. brucei phosphofructokinase: Aqueous Kinetic Solubility. The note with it: stronger effect = higher value.

On to `O=C(Cc1ccc(Cl)c(Cl)c1)Nc1ccc(S(=O)(=O)Nc2ccon2)cc1`, for which the solubility was 150 µM (≈ 63.9 µg/mL).
